Source: patent US9730450B2, “Use of isosorbide monoesters as antimicrobial active substances” (CLARIANT INTERNATIONAL LTD., priority 2011, dated 2017)
Converted amounts (≈) assume the structure as drawn. Read-outs that look alike come from different tables or passages of the source.

Legend:
[1] = test system: bacteria, fungi and yeasts; details: general statement, no test described, cited from earlier work
[2] = test system: bacteria, fungi and yeasts; experiment: Antimicrobial efficacy, overall statement; assay type: cell-based
Procedure: (§1) Below, the antimicrobial efficacy of isosorbide caprylate 1 in butyl polyglycol against bacteria, fungi and yeasts is examined. For the tests with bacteria, isosorbide caprylate 1 was diluted with butyl polyglycol and then, at 50° C., added to liquid CASO agar (casein-peptone agar) buffered to pH 7 (+1-0.2) in various concentrations (hereinbelow referred to as compositions B1, B2, etc.). For the tests with fungi and yeasts, isosorbide caprylate 1 was diluted with butyl polyglycol and then added to liquid Sabouraud 4% dextrose agar buffered to pH 5.6 (+1-0.2) in various concentrations (hereinbelow referred to as compositions PH1, PH2, etc.). The compositions B1, B2, etc. and PH1, PH2 etc. were each poured into Petri dishes and each inoculated with identical amounts of bacteria, fungi and yeasts. The minimum inhibitory concentration (MIC) is the concentration at which inhibition of the growth of the bacteria, fungi and yeasts in the compositions B1, B2, etc. and PH1, PH2, etc. occurs.
(§2) Analogously to the determination of the antimicrobial activity of isosorbide caprylate 1, the antimicrobial activity firstly of a mixture comprising 89.6% by weight of isosorbide dicaprylate and 9.4% by weight of isosorbide monocaprylate (remainder: 1% by weight) (hereinbelow referred to as “isosorbide dicaprylate”) and, secondly, pure isosorbide was determined in further test series.

Fusarium solani = experiment: MIC agar dilution test, fungi; assay type: cell-based; details: Fusarium solani (F); Sabouraud 4% dextrose agar buffered to pH 5.6; corrected for dilution effect of butyl polyglycol; read-out: Minimum inhibitory concentration (MIC)
Procedure: as §1, §2

Aspergillus brasiliensis = experiment: MIC agar dilution test, fungi; assay type: cell-based; details: Aspergillus brasiliensis (F); Sabouraud 4% dextrose agar buffered to pH 5.6; corrected for dilution effect of butyl polyglycol; read-out: Minimum inhibitory concentration (MIC)
Procedure: as §1, §2

Aspergillus terreus = experiment: MIC agar dilution test, fungi; assay type: cell-based; details: Aspergillus terreus (F); Sabouraud 4% dextrose agar buffered to pH 5.6; corrected for dilution effect of butyl polyglycol; read-out: Minimum inhibitory concentration (MIC)
Procedure: as §1, §2

Penicillium funicolosium = experiment: MIC agar dilution test, fungi; assay type: cell-based; details: Penicillium funicolosium (F); Sabouraud 4% dextrose agar buffered to pH 5.6; corrected for dilution effect of butyl polyglycol; read-out: Minimum inhibitory concentration (MIC)
Procedure: as §1, §2

Penicillium minioluteum = experiment: MIC agar dilution test, fungi; assay type: cell-based; details: Talaromyces minioluteus; Penicillium minioluteum (F); Sabouraud 4% dextrose agar buffered to pH 5.6; corrected for dilution effect of butyl polyglycol; read-out: Minimum inhibitory concentration (MIC)
Procedure: as §1, §2

Candida albicans = experiment: MIC agar dilution test, yeasts; assay type: cell-based; details: Candida albicans (Y); Sabouraud 4% dextrose agar buffered to pH 5.6; corrected for dilution effect of butyl polyglycol; read-out: Minimum inhibitory concentration (MIC)
Procedure: as §1, §2

Staphylococcus aureus = experiment: MIC agar dilution test, bacteria; assay type: cell-based; details: Staphylococcus aureus (B); CASO agar buffered to pH 7; corrected for dilution effect of butyl polyglycol; read-out: Minimum inhibitory concentration (MIC)
Procedure: as §1, §2

Enterobacter aerogenes = experiment: MIC agar dilution test, bacteria; assay type: cell-based; details: Klebsiella aerogenes; Enterobacter aerogenes (B); CASO agar buffered to pH 7; corrected for dilution effect of butyl polyglycol; read-out: Minimum inhibitory concentration (MIC)
Procedure: as §1, §2

Escherichia coli = experiment: MIC agar dilution test, bacteria; assay type: cell-based; details: Escherichia coli (B); CASO agar buffered to pH 7; corrected for dilution effect of butyl polyglycol; read-out: Minimum inhibitory concentration (MIC)
Procedure: as §1, §2

Citrobacter freundii = experiment: MIC agar dilution test, bacteria; assay type: cell-based; details: Citrobacter freundii (B); CASO agar buffered to pH 7; corrected for dilution effect of butyl polyglycol; read-out: Minimum inhibitory concentration (MIC)
Procedure: as §1, §2

Pseudomonas aeruginosa = experiment: MIC agar dilution test, bacteria; assay type: cell-based; details: Pseudomonas aeruginosa (B); CASO agar buffered to pH 7; corrected for dilution effect of butyl polyglycol; read-out: Minimum inhibitory concentration (MIC)
Procedure: as §1, §2

Klebsiella pneumoniae = experiment: MIC agar dilution test, bacteria; assay type: cell-based; details: Klebsiella pneumoniae (B); CASO agar buffered to pH 7; corrected for dilution effect of butyl polyglycol; read-out: Minimum inhibitory concentration (MIC)
Procedure: as §1, §2

Proteus vulgaris = experiment: MIC agar dilution test, bacteria; assay type: cell-based; details: Proteus vulgaris (B); CASO agar buffered to pH 7; corrected for dilution effect of butyl polyglycol; read-out: Minimum inhibitory concentration (MIC)
Procedure: as §1, §2

Pseudomonas oleovorans = experiment: MIC agar dilution test, bacteria; assay type: cell-based; details: Ectopseudomonas oleovorans; Pseudomonas oleovorans (B); CASO agar buffered to pH 7; corrected for dilution effect of butyl polyglycol; read-out: Minimum inhibitory concentration (MIC)
Procedure: as §1, §2

**Q.** Which “antimicrobial activity (in words)” value ([1]; at a pH of 6 or above) does the source give for `CCCCCCCC(=O)O` [caprylic acid] here?
**A.** The value was “no antimicrobial activity”.

**Q.** And the “antimicrobial activity (in words)” value [1]?
**A.** Its value is “antimicrobially effective”.

**Q.** With `O[C@@H]1CO[C@H]2[C@@H]1OC[C@@H]2O` [isosorbide] as the compound, how does the “antimicrobial activity (in words)” value ([2]; summary of MIC results of Tables 1 and 2) read?
**A.** Its value is “neither isosorbide nor isosorbide dicaprylate is antimicrobially active”.

**Q.** What about the MIC (Fusarium solani) of the same compound?
**A.** The MIC was 10000 µg/mL (≈ 68.4 mM).

**Q.** What about the MIC (Aspergillus brasiliensis) of the same compound?
**A.** The MIC was 10000 µg/mL (≈ 68.4 mM).

**Q.** What about the MIC (Aspergillus terreus) of the same compound?
**A.** The MIC was 10000 µg/mL (≈ 68.4 mM).

**Q.** And the MIC (Penicillium funicolosium)?
**A.** Its MIC is 10000 µg/mL (≈ 68.4 mM).

**Q.** And the MIC (Penicillium minioluteum)?
**A.** The MIC was 10000 µg/mL (≈ 68.4 mM).

**Q.** And the MIC (Candida albicans)?
**A.** Its MIC is 10000 µg/mL (≈ 68.4 mM).

**Q.** What about the MIC (Staphylococcus aureus) of the same compound?
**A.** Its MIC is 10000 µg/mL (≈ 68.4 mM).

**Q.** What about the MIC (Enterobacter aerogenes) of the same compound?
**A.** Its MIC is 10000 µg/mL (≈ 68.4 mM).

**Q.** What about the MIC (Escherichia coli) of the same compound?
**A.** Its MIC is 10000 µg/mL (≈ 68.4 mM).

**Q.** And the MIC (Citrobacter freundii)?
**A.** The MIC was 10000 µg/mL (≈ 68.4 mM).

**Q.** What about the MIC (Pseudomonas aeruginosa) of the same compound?
**A.** The MIC was 10000 µg/mL (≈ 68.4 mM).

**Q.** And the MIC (Klebsiella pneumoniae)?
**A.** The MIC was 10000 µg/mL (≈ 68.4 mM).

**Q.** And the MIC (Proteus vulgaris)?
**A.** Its MIC is 10000 µg/mL (≈ 68.4 mM).

**Q.** And the MIC (Pseudomonas oleovorans)?
**A.** Its MIC is 10000 µg/mL (≈ 68.4 mM).

**Q.** With isosorbide monocaprylate as the compound, how does the “antimicrobial activity (in words)” value ([2]; concluded from activity of isosorbide caprylate 1 and inactivity of its other constituents, in particular as fungicide against fungi and yeasts) read?
**A.** The value was “significant antimicrobial activity”.
